Data taken from US10065951B2, “Small molecule transcription modulators of bromodomains” (Icahn School of Medicine at Mount Sinai, priority 2014, dated 2018).

Molecular target: T1, CBP BRD (Homo sapiens, UniProt Q92793)
T1 construct: made in house
Experiment: In vitro fluorescence polarization-based competition binding assay
Details: within series 4a-d
Experimental: FIG. 1A is a line drawing of the florescence polarization competition assay measuring the binding affinity of compounds 4a-d to the CBP BRD. FIG. 1B provides the IC50 values of compounds 4a-d and MS7972. Results are representative of three independent experiments and the error is SD.
Expression and purification of the recombinant CBP BRD in poly-his tag form was conducted using the procedure as previously described (Mujtaba, S. et al., Mol Cell 13, 251-63 (2004)). The purified protein was confirmed with mass spectroscopy. Binding assays were performed with CBP BRD (5 μM) and fluorescent probe (10 nM), and increasing concentration of unlabeled competing ligand.

T1 sequence (Q92793 1085-1192 limits assumed): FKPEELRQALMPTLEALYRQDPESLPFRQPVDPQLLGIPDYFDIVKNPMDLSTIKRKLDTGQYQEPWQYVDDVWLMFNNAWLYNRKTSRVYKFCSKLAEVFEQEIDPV

SMILES | binding affinity to CBP BRD, in words
CC(=O)NCCn1c2c(c3ccccc31)C(=O)NCC2 [4a, 2,3,4,5-tetrahydro-5-(2′-acetamidoethyl)-1H-pyrido-[4,3-b]indol-1-one] | lowest improvement of the series
CC(=O)NCCCCCCn1c2c(c3ccccc31)C(=O)NCC2 [4d, 2,3,4,5-tetrahydro-5-(6′-acetamidohexyl)-1H-pyrido-[4,3-b]indol-1-one] | partial or total loss of the affinity
